Experiments:
in vitro = conditions: human, Caco-2
Protocol: Caco-2 cells are used as an in vitro model of the human intestinal epithelium and permit assessment of the intestinal permeability of potential drugs. Vancomycin is added to either the apical or basolateral side of a confluent monolayer of Caco-2 cells and permeability is measured by monitoring the appearance of the Vancomycin on the opposite side of the monolayer using LC-MS/MS. When performing a bi-directional assay, the efflux ratio (ER) is calculated from the ratio of B->A and A->B permeabilities.
The permeability measure of vancomycin in the apical to basolateral (A->B) and basolateral to apical (B->A) direction across Caco-2 cells, and to determine the efflux ratio.

Clostridium difficile = assay: Agar dilution MIC of vancomycin preparations (Sigma, Cutis), diluent, Na benzoate and Na citrate; type: cell-based; conditions: tested separately at concentrations exceeding those present in the diluent
Protocol: Introduction: The purpose of the study was to compare the MICs obtained with the formulation of vancomycin HCL of the invention (Cutis) to formulations obtained using a vancomycin HCL reference standard powder obtained from Sigma. The Example also involves the analysis of a solution or diluent to determine if it has antimicrobial activity at the concentrations present in the agar dilution test.
The C. difficile were tested by agar dilution according to the procedures in the Clinical and Laboratory Standards Institute. 2012. Methods for antimicrobial susceptibility testing of anaerobic bacteria; approved standard-seventh edition.
Other anaerobic organisms included clinical isolates of Bifidobacterium adolescentis and Bacteroides fragilis. Clostridium difficile ATCC 700057 was included as a quality control strain.
The C. difficile isolates were recovered from patients with CDI during the past two years and stored at −70° C. in 20% skim milk. Ribotyping was performed by another reference laboratory. The strains were taken from the freezer and subcultured at least twice to ensure purity and good growth.
On the day of testing, they were suspended in Brucella broth to the turbidity of the 0.5 McFarland standard for testing.
Stock solution of the Sigma vancomycin was prepared in water and stored at −70° C. On the day of testing, it was thawed and further diluted in water to obtain the desired range of 16-0.125 μg/ml. The Cutis vancomycin (25 mg/ml) was reconstituted on the day of testing and further diluted for a final range of 16-0.125 μg/ml in the test. The antimicrobials were added to molten Brucella agar supplemented with vitamin K and hemin to prepare the plates. Drug-free growth controls were included for testing before and after each set of plates. All testing was done in triplicate.
The organisms were pipetted into the wells of the Steers replicator head and applied to the plates with the multi-pronged replicator. The final concentration of organisms was ˜10^5 CFU/spot.
The plates were incubated in the anaerobic chamber incubator for 44 h and examined for growth.
The Cutis diluent comprises: water, about 0.12% (w/v) citric acid (anhydrous), 0.2% (w/v) sucralose, about 0.05% (w/v) artificial grape flavor, 0.1% (w/v) sodium benzoate, about 0.0002% (w/v) D&C Yellow No. 10 and about 0.000038% (w/v) FD&C Red No. 40.

[1] = orally-administered; cited from earlier work

| Compound | Papp A→B (in vitro) [×10⁻⁶ cm/s] | Papp B→A (in vitro) [×10⁻⁶ cm/s] | growth inhibition (Clostridium difficile) | further results |
| --- | --- | --- | --- | --- |
| COCCc1ccc(OCC(O)CNC(C)C)cc1 (centres unmarked) [Metoprolol] | 11.6 | 30 |  |  |
| O=C([O-])c1ccccc1.[Na+] [Na benzoate] |  |  | no inhibition |  |
| O=C([O-])CC(O)(CC(=O)[O-])C(=O)[O-].[Na+].[Na+].[Na+] [Na citrate] |  |  | no inhibition |  |
| CNC(=C[N+](=O)[O-])NCCSCc1ccc(CN(C)C)o1 [Ranitidine] | 0.3 | 1.5 |  |  |
| CN[C@H](CC(C)C)C(=O)N[C@H]1C(=O)N[C@@H](CC(N)=O)C(=O)N[C@H]2C(=O)N[C@H]3C(=O)N[C@H](C(=O)N[C@H](C(=O)O)c4cc(O)cc(O)c4-c4cc3ccc4O)[C@H](O)c3ccc(c(Cl)c3)Oc3cc2cc(c3O[C@@H]2O[C@H](CO)[C@@H](O)[C@H](O)[C@H]2O[C@H]2C[C@](C)(N)[C@H](O)[C@H](C)O2)Oc2ccc(cc2Cl)[C@H]1O [vancomycin] |  |  |  | absorption [1]: cannot be absorbed; concentrations in the colon [1]: 500 to 1000 µg/mL |
